{"source": "patent EP3861991A1", "about": "“COMPOSITION FOR PREVENTING AND TREATING ACUTE AND CHRONIC WOUNDS” (Foodar Advanced Research S.r.l., priority 2020, dated 2021)", "test_system": "HDF cells", "test": "Scratch assay: fibroblast cell migration and wound closure", "assay_type": "cell-based, Human", "settings": "10 µM, single components, Fig. 2", "experimental": "Human dermal fibroblasts (HDF) (ATCC, Manassas, VA, USA) were grown in fibroblast basal medium supplemented with fibroblast growth kit-serum free (ATCC). Activation, proliferation and migration of fibroblasts are the primary steps in wound healing, where multiple cell types and other micro environmental factors are involved. Scratch assay is a widely applied In vitro technique for understanding the wound healing capabilities of medicinally important compounds. HDF cells were seeded in 6-well plates and were cultured overnight. Cells were then washed with Delbucco's Phosphate Buffered Saline (DPBS) and a scratch was made with a sterile 200µL tip. The detached cells and other cellular debris were removed by washing the cells with DPBS. The cells were treated with 10 µM of AND (source of Example 1), HYX (source of Example 1), or AND + HYX (1/1 ratio, same sources) and incubated for 24 h. Untreated cells were negative control. […] The experiments were performed in triplicate (n = 3). The width of the scratch and wound closure at different time intervals (0, 12, 24 and 48hrs) was analyzed by Image J software.", "data": [{"smiles": "C=C1CC[C@@H]2[C@](C)(CO)[C@H](O)CC[C@@]2(C)[C@@H]1C/C=C1/C(=O)OC[C@H]1O", "note": "[AND, 3-[2-[Decahydro-6-hydroxy-5-(hydroxymethyl)-5,8a-dimethyl-2-methylene-1-napthalenyl]ethylidene]dihydro-4-hydroxy-2(3H)-furanone]", "values": [{"measurement": "percentage of cell migration (in words, relative to the AND+HYX combination)", "result": "well lower"}]}]}
